According to patent publication US8637665B2, “Pyrrolo[2,L-C][L,4]benzodiazepine-benzothiazole or benzoxazole conjugates linked through piperazine moiety and process for the preparation thereof” (priority 2010, dated 2014):
Like-named read-outs stand apart in the source and are kept apart here.

Legend:
[1] = test system: A 2780 (ovary cancer) cell line; test: cells; format: cell-based; conditions: for GI50: mean of three determinations
Procedure: (§1) Anticancer activity: In vitro biological activity studies were carried out at the Advance Center for Treatment Research & Education in Cancer (ACTREC), Navi Mumbai.
(§2) The compounds were evaluated for in vitro anticancer activity against eight tumour cells lines derived from seven cancer types (non-small-cell lung, colon, oral, cervix, ovarian, prostate, and breast cancer) as shown in Table 2. For each compound, dose response curves for each cell line were measured at a minimum of five concentrations at 10 fold dilutions. A protocol of 48 h continuous drug exposure was used and a sulforhodamine B (SRB) protein assay was used to estimate cell viability or growth. The concentration causing 50% cell growth inhibition (GI50) and 50% cell death (LC50, −50% growth) compared with the control was calculated. Compounds 9a-9l have been evaluated for their in vitro cytotoxicity in eight cell lines from seven human cancer types of lung (Hop-62, A-549) colon (COLO-205) cervix (Si—Ha), ovary (A-2780), prostate (PC3) breast (MCF7), oral (KB). The results are expressed as percent of cell growth determined relative to that of untreated control cells (Table-8 and table-9).

[2] = test system: A 549 (lung cancer) cell line; test: cells; format: cell-based; conditions: for GI50: 48 h drug exposure, SRB, mean of three determinations, read-out: GI50 A 549
Procedure: as §1, §2

[3] = test system: Colo 205 (colon cancer) cell line; test: cells; format: cell-based
Procedure: as §1, §2

[4] = test system: HOP 62 (lung cancer) cell line; test: cells; format: cell-based
Procedure: as §1, §2

[5] = test system: MCF 7 (breast cancer) cell line; test: cells; format: cell-based; conditions: for GI50: read-out: GI50 MCF 7
Procedure: as §1, §2

[6] = test system: PC 3 (prostate cancer) cell line; test: cells; format: cell-based; conditions: for GI50: Homo sapiens, read-out: GI50 PC 3
Procedure: as §1, §2

[7] = test system: SiHa (cervix cancer) cell line; test: cells; format: cell-based; conditions: for GI50: mean of three determinations
Procedure: as §1, §2

[8] = test system: KB (oral cancer) cell line; test: In vitro anticancer activity, SRB assay, KB; format: cell-based, human; conditions: 48 h drug exposure, SRB; for GI50: mean of three determinations, read-out: GI50 KB
Procedure: as §1, §2

[9] = test system: duplex-form calf thymus DNA (CT-DNA); test: Thermal denaturation studies with calf thymus DNA (DNA binding affinity); conditions: [PBD]:[DNA] 1:5, CT-DNA 100 μM, ligand 20 μM, pH 7.00
Procedure: Compounds have been subjected to thermal denaturation studies with duplex-form calf thymus DNA (CT-DNA) using an modification of a reported procedure (Newman, M. S. Carcinog-compr. Surv. 1976,1, 203; (b) Hecht, S. S.; Loy, M.; Hoffman, Carcinog-compr. Surv. 1976, 1, 325). Working solutions in aqueous buffer (10 mM NaH2PO4/Na2HPO4, 1 mM Na2EDTA, pH 7.00+0.01) containing CT-DNA (100 μm in phosphate) and the PBD (20 μm) have been prepared by addition of concentrated PBD solutions in DMSO to obtain a fixed [PBD]/[DNA] molar ratio of 1:5. The DNA-PBD solutions have been incubated at 37° C. for 0 and 18 h prior to analysis. Samples have been monitored at 260 using a Beckman DU-800 spectrophotometer fitted with high performance temperature controller, and heated at 1° C. min^−1 in the 40-110° C. range. DNA helix→coil transition temperatures (Tm) have been obtained from the maxima in the d(A260)/dT derivative plots. Drug-induced alterations in DNA melting behavior are given by: ΔTm=Tm(DNA+PBD)−Tm(DNA alone), where the Tm value for the PBD-free CT-DNA is 69.1±0.01.
The DNA binding activity for these novel C8-linked benzothiazole, benzoxazole-PBD hybrids has been examined by thermal denaturation studies using calf thymus (CT) DNA. […] The data for the compounds 9a-n is included in Table 7 for comparison.

[10] = 48 h drug exposure, SRB, mean of three determinations

`COc1cccc2c1C(=O)c1c(O)c3c(c(O)c1C2=O)C[C@@](O)(C(=O)CO)C[C@@H]3O[C@H]1C[C@H](N)[C@H](O)[C@H](C)O1` [ADR, adriamycin, reference compound] showed a GI50 ([1]; Homo sapiens, A2780, 48 h drug exposure, SRB, read-out: GI50 A 2780) of 2 nM, a GI50 ([2]; Homo sapiens, A549) of 13000 nM and a GI50 ([3]; Homo sapiens, COLO 205; 48 h drug exposure, SRB; mean of three determinations; read-out: GI50 Colo 205) of 14700 nM. For the same compound, the GI50 ([4]; Homo sapiens, HOP-62; 48 h drug exposure, SRB; mean of three determinations; read-out: GI50 HOP 62) was less than 10 nM, the GI50 ([5]; Homo sapiens, MCF7, 48 h drug exposure, SRB, mean of three determinations) was less than 10 nM and the GI50 [6, 10] was less than 10 nM. For the same compound, the GI50 ([7]; Homo sapiens, SiHa, 48 h drug exposure, SRB, read-out: GI50 SiHa) was 190 nM and the GI50 ([8]; Homo sapiens, 48 h) was 160 nM.
`COc1cc2c(cc1OCCCCN1CCN(CCCCOc3ccc(-c4nc5ccccc5s4)cc3)CC1)N=C[C@@H]1CCCN1C2=O` [Compound 9e, 7-Methoxy-8-[4-(4-{4-[4(1,3-benzothiazol-2-yl)-phenoxy]butyl}piperazin-1-yl)butyl]oxy-(11aS)-1,2,3,11a-tetrahydro-5H-pyrrolo[2,1-c][1,4]benzodiazepin-5-one] was tested, and the “ΔTm after incubation at 37° C. for 0 h” value [9] was 12.2 °C, the “ΔTm after incubation at 37° C. for 18 h” value [9] was 12.6 °C and the GI50 ([1]; Homo sapiens, A2780, 48 h, read-out: GI50 A 2780, 48 h drug exposure, SRB) was 97 nM. For the same compound, the CC50 ([1]; human, 48 h) was 2200 nM, the CC50 ([2]; human, 48 h) was greater than 100000 nM and the GI50 [2] was 105 nM. The CC50 ([3]; human, 48 h) was greater than 100000 nM, the GI50 ([3]; read-out: GI50 Colo 205; 48 h drug exposure, SRB; mean of three determinations) was 120 nM and the CC50 ([4]; human, 48 h) was 27000 nM. For the same compound, the GI50 ([4]; read-out: GI50 HOP 62; 48 h drug exposure, SRB; mean of three determinations) was less than 10 nM, the GI50 ([5]; Homo sapiens, MCF7, 48 h) was less than 10 nM and the CC50 ([5]; human, 48 h) was 150 nM. For the same compound, the GI50 ([6]; 48 h) was less than 10 nM, the CC50 ([6]; human, 48 h) was 2500 nM and the GI50 ([7]; Homo sapiens, SiHa, 48 h, read-out: GI50 SiHa, 48 h drug exposure, SRB) was 107 nM. The CC50 ([7]; human, 48 h) was 27800 nM, the “LC50 KB” value ([8]; 50% cell death) was 2300 nM and the GI50 [8] was less than 10 nM.
With `COc1cc(-c2nc3ccccc3s2)ccc1OCCCCN1CCN(CCCCOc2cc3c(cc2OC)C(=O)N2CCC[C@H]2C=N3)CC1` [Compound 9m, 7-Methoxy-8-[4-(4-{4-[4(1,3-benzothiazol-2-yl)-2-methoxyphenoxy]butyl}piperazin-1-yl)butyl]oxy-(11aS)-1,2,3,11a-tetrahydro-5H-pyrrolo[2,1-c][1,4]benzodiazepin-5-one] the “ΔTm after incubation at 37° C. for 0 h” value [9] was 12.1 °C and the “ΔTm after incubation at 37° C. for 18 h” value [9] was 12.5 °C.
With `COc1cc2c(cc1OCCCCN1CCN(CCCCOc3cccc(-c4nc5ccccc5s4)c3)CC1)N=C[C@@H]1CCCN1C2=O` [Compound 9n, 7-Methoxy-8-[4-(4-{4-[3(1,3-benzothiazol-2-yl)-phenoxy]butyl}piperazin-1-yl)butyl]oxy-(11aS)-1,2,3,11a-tetrahydro-5H-pyrrolo[2,1-c][1,4]benzodiazepin-5-one] the “ΔTm after incubation at 37° C. for 0 h” value [9] was 10.3 °C and the “ΔTm after incubation at 37° C. for 18 h” value [9] was 10.6 °C.
`COc1cc2c(cc1O)N=CC1CCCN1C2=O` (centres unmarked) [DC-81, reference compound] was tested, and the “ΔTm after incubation at 37° C. for 0 h” value [9] was 0.3 °C, the “ΔTm after incubation at 37° C. for 18 h” value [9] was 0.7 °C and the GI50 ([1]; 48 h drug exposure, SRB, read-out: GI50 A 2780) was 130 nM. It also gave a GI50 ([3]; 48 h drug exposure, SRB; mean of three determinations; read-out: GI50 Colo 205) of 100 nM, a GI50 ([4]; 48 h drug exposure, SRB; mean of three determinations; read-out: GI50 HOP 62) of 110 nM and a GI50 [5, 10] of 160 nM. For the same compound, the GI50 ([7]; 48 h drug exposure, SRB, read-out: GI50 SiHa) was 160 nM and the GI50 [8] was 170 nM.
